# What was measured:
# Eahy 926 cells = experiment: Superoxide production by intact Eahy 926 (lucigenin chemiluminescence); format: cell-based, human; conditions: 5 μM LacCer after 5 minutes, intact Eahy 926 cells
# NADH oxidase = NADH oxidase assay in membrane preparations of Eahy 926 cells; format: biochemical, human; conditions: 5 μM LacCer
# NF-kB = NF-kB DNA binding assay (gel mobility shift) in Eahy 926 cells; format: cell-based, human; conditions: 5 μM LacCer
# VCAM-1 = VCAM-1 expression in Eahy 926; format: cell-based, human; conditions: Eahy 926, LacCer
# P-selectin = P-selectin expression in Eahy 926; format: cell-based, human; conditions: Eahy 926, LacCer
# [1] = test system: neutrophil adhesion to Eahy 926 cells; experiment: Confocal microscopic study of adhesion of human neutrophils to Eahy 926 endothelial cells; format: cell-based; conditions: LacCer 5 μM, 4 hours
# p150,95 = experiment: Flowcytometric analysis of p150,95 expression on PMNs; format: cell-based, human; conditions: 20 minutes
# Protocol: (§1) 10. Flowcytometric Analysis of the Expression of Adhesion Molecules on PMNs. Treated PMNs were rapidly cooled on ice, washed twice with cold washing buffer (PBS containing 0.1% BSA and 0.1% sodium azide), and then incubated with either monoclonal (m) anti-human (h) LFA-1 (CD11 a), m-anti-h Mac-1 (CD 11b), m-anti-h p150,95 (CD 11 c) or m-anti-h L-selectin (all from PharMingen., San Diego, Calif.), followed by FITC-conjugated m-anti-mouse IgG (American Qualex, San Clement, Calif.). The PMNs were gated by forward and side scattering for analysis by FACScan (Becton Dickinson, Cockeysville, Md.).
# CD11a/CD18 (LFA-1) = experiment: Flowcytometric analysis of LFA-1 expression on PMNs; format: cell-based, human; conditions: 20 minutes
# Protocol: as §1
# L-selectin = experiment: Flowcytometric analysis of L-selectin expression on PMNs; format: cell-based, human; conditions: 20 minutes
# Protocol: as §1
# PMNs [2] = experiment: ROM generation by PMNs (DCFH-DA); format: cell-based, human; conditions: DCFH-DA, 45 minutes
# PMNs [3] = experiment: Superoxide generation in PMNs (lucigenin); format: cell-based, human; conditions: 100 nmol LacCer 20 minutes, no inhibitor, PMNs
# [4] = test system: PMN adhesion to unstimulated endothelial cells; experiment: PMN-endothelial adhesion assay; format: cell-based, human; conditions: PMNs incubated with LacCer, washed
# Protocol: 12. PMN-Endothelial Adhesion Assay. PMNs were labeled fluorescently by incubation with 5 μmol/L Calcein-AM (Molecular Probes) in calcium-free PBS for 20 minutes at 37° C., washed and resuspended in Hanks' balanced salt solution (Gibco) containing 0.2% bovine serum albumin (BSA). These PMNs were then treated with LacCer (or vehicle, 0.05% DMSO), washed 3 times with PBS and then plated on the unstimulated ec monolayers, which had been grown to confluence in 24-well plates. The PMNs (600 μL of 2×10^6 /mL/well) then were incubated with the ecs for 30 minutes at 37° C. Non-adherent PMNs were then removed by gentle washing 3 times with PBS. The residual adherent PMNs (and ecs) were then lysed using 4mmol/L Zwittergent Calbiochem, La Jolla, Calif.) and the plates read on a fluorescence plate reader (Millipore) at EX 480 nm/EM 530 nm. The number of adherent PMNs were expressed as number of PMN/mm^2 ec monolayer, based on the mean fluorescent intensity of each PMN, as determined from a standard curve. 13. Additional Methods. LacCer, ceramide and […] (all from Sigma) were prepared as described in examples below, and used as putative agonists for the stimulation of PMN adhesion molecule expression, assayed by FACScan. […]
# PMNs [5] = experiment: [3H] arachidonic acid release from labeled PMNs; format: cell-based, human; conditions: 100 nmol/L LacCer, 30 minutes at 37° C.
# NADPH oxidase = conditions: eahy 926 cell membranes, 5 min, 5 µM
# Mac-1 (CD11b/CD18) = conditions: pmns, 20 min, 0.1 µM
# restenosis = conditions: patients, reported in literature; cited from earlier work
molecule,measurement,setting,value
lactosylceramide [LacCer],maximum generation of O2-,Eahy 926 cells,2.7 nmol/mni/mg protein
same,NADH oxidase activity in LacCer stimulated/non stimulated membrane preparations,NADH oxidase,remained unchanged
same,nuclear concentration of NF-kB,NF-kB,time dependent increase
same,expression of VCAM-1,VCAM-1,did not stimulate measurable expression
same,expression of P-selectin,P-selectin,did not stimulate measurable expression
same,adhesion of neutrophils to the endothelial cell monolayer,[1],markedly stimulated
same,"level of p150,95","p150,95; LacCer 200 nmol/L",decreased
same,"level of p150,95","p150,95; LacCer 50-100 nmol/L",increased
same,level of CD11a/CD18 (LFA-1),CD11a/CD18 (LFA-1); LacCer higher concentrations,downregulated
same,level of CD11a/CD18 (LFA-1),CD11a/CD18 (LFA-1); LacCer lower concentrations,did not change
same,level of L-selectin,L-selectin; LacCer higher concentrations,downregulated
same,level of L-selectin,L-selectin; LacCer lower concentrations,did not change
same,ROM stimulation in PMNs,PMNs [2],"positive, dose-dependent response"
same,superoxide levels compared with controls,PMNs [3],about two
same,PMN adhesion to unstimulated ec monolayers,[4],increased
same,[3H] AA release from labeled PMNs,PMNs [5],increased
same,maximal expression of ICAM-1 as compared to control,"ICAM-1; eahy 926 cells, 6 h, 5 µM",7 fold
same,stimulation of ICAM-1 expression by GSLs,"ICAM-1; intact Eahy 926 cells, GSLs 10 μM, gangliosides up to 50 μM",specifically stimulated
same,stimulation of NADPH oxidase activity versus non-stimulated cell membrane preparations,NADPH oxidase,about 3 fold
same,maximum stimulation of Mac-1 level compared to control,Mac-1 (CD11b/CD18),2.5 fold
CC(C)(Sc1cc(C(C)(C)C)c(O)c(C(C)(C)C)c1)Sc1cc(C(C)(C)C)c(O)c(C(C)(C)C)c1 [probucol],restenosis after angioplasty,restenosis,reduce restenosis in some patients

# — patent US6228889A, “Methods for treatment of conditions associated with lactosylceramide” (priority 1999, dated 2001)
